Experimental data reported in the kinase profiling compilation of Christmann-Franck et al. (2016).

Assays:
Assay in all cases: KINOMEscan competition binding
Conditions in all cases: compound 10.0 µM
PHKG1 (human) = PHKG1 (human) (UniProt Q16816)
ZAP70 (human) = ZAP70 (human) (UniProt P43403)
PRKAA1 (human) = PRKAA1 (human) (UniProt Q13131)
CSNK2A1 (human) = CSNK2A1 (human) (UniProt P68400)
BMPR1B (human) = BMPR1B (human) (UniProt O00238)
SRMS (human) = SRMS (human) (UniProt Q9H3Y6)
MAPK3 (human) = MAPK3 (human) (UniProt P27361)
BRSK1 (human) = BRSK1 (human) (UniProt Q8TDC3)
SRC (human) = SRC (human) (UniProt P12931)
RIOK1 (human) = RIOK1 (human) (UniProt Q9BRS2)
WEE1 (human) = WEE1 (human) (UniProt P30291)
RIOK2 (human) = RIOK2 (human) (UniProt Q9BVS4)
NEK7 (human) = NEK7 (human) (UniProt Q8TDX7)
Chain of NEK7 (human) (Q8TDX7 whole entry, looked up): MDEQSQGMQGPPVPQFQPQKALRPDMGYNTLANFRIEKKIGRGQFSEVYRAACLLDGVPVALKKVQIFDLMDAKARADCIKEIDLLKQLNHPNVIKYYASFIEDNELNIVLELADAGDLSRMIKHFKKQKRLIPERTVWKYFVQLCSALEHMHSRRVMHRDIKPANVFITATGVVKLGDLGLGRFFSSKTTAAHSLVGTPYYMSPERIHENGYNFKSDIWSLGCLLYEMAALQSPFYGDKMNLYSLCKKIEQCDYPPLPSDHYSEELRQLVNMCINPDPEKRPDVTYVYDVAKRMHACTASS

SLK (human) = SLK (human) (UniProt Q9H2G2)
MAPK6 (human) = MAPK6 (human) (UniProt Q16659)
Chain of MAPK6 (human) (Q16659 whole entry, looked up): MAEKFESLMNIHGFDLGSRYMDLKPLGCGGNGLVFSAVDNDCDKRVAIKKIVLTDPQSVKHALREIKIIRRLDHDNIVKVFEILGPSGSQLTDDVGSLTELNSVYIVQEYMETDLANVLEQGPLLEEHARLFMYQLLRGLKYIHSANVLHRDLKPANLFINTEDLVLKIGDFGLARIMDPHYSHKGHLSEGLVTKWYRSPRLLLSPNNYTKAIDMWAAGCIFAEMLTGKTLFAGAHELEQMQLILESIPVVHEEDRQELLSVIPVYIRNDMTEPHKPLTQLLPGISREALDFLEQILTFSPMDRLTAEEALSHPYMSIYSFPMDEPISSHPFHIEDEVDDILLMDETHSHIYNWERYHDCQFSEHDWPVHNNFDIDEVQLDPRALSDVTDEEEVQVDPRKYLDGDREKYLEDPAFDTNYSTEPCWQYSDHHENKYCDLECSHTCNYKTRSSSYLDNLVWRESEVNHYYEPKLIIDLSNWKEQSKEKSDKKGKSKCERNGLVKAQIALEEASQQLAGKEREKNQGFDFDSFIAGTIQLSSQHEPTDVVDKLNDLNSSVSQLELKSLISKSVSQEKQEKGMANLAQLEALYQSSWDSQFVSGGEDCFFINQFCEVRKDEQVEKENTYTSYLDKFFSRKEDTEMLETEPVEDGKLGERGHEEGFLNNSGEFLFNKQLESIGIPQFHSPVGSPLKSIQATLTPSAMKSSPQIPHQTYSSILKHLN

BRSK2 (human) = BRSK2 (human) (UniProt Q8IWQ3)
Chain of BRSK2 (human) (Q8IWQ3 whole entry, looked up): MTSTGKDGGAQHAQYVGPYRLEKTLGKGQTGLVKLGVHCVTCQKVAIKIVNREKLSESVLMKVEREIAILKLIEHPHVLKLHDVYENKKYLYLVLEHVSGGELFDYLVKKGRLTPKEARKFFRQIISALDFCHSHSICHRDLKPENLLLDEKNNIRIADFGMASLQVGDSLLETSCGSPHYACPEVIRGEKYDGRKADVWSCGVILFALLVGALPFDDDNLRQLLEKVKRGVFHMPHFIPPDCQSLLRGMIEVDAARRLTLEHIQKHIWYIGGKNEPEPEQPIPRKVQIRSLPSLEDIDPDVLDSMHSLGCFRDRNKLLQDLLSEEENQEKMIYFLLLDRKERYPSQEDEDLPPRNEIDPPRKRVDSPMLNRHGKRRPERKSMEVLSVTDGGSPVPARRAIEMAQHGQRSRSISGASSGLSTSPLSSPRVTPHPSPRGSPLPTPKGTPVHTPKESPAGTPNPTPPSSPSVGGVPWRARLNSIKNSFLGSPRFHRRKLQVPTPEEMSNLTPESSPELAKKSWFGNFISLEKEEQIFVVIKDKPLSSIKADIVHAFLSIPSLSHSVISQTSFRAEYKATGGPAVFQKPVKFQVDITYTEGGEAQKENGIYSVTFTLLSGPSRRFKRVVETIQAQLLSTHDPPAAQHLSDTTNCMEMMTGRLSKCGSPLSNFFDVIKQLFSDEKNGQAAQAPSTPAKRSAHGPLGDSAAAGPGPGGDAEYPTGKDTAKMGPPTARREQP

CDK15 (human) = CDK15 (human) (UniProt Q96Q40)
STK25 (human) = STK25 (human) (UniProt O00506)
MELK (human) = MELK (human) (UniProt Q14680)
CLK1 (human) = CLK1 (human) (UniProt P49759)
STK33 (human) = STK33 (human) (UniProt Q9BYT3)
EPHA7 (human) = EPHA7 (human) (UniProt Q15375)
Chain of EPHA7 (human) (Q15375 whole entry, looked up): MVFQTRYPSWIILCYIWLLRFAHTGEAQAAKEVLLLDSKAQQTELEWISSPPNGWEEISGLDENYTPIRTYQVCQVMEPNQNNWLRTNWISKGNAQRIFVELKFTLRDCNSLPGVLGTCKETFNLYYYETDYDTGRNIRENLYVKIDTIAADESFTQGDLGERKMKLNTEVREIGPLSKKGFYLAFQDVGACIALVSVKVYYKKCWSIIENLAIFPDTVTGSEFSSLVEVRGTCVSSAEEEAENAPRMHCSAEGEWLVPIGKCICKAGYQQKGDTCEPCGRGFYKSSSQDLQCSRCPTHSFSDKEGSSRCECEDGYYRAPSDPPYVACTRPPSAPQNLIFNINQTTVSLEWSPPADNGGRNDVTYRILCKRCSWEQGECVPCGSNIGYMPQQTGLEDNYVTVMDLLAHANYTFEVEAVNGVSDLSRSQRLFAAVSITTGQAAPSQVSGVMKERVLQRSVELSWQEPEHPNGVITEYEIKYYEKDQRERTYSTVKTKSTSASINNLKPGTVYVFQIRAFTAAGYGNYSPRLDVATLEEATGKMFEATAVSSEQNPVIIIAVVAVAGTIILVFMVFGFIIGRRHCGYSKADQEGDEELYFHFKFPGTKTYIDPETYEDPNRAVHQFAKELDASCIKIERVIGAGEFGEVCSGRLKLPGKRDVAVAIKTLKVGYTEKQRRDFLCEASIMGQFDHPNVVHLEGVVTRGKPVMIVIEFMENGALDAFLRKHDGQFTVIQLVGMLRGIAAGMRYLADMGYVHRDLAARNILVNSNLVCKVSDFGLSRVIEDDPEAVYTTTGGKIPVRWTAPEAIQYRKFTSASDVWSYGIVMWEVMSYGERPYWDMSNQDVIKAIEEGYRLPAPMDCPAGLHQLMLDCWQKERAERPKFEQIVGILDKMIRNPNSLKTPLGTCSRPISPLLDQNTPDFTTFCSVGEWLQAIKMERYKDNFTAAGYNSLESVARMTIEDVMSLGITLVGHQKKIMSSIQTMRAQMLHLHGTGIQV

BLK (human) = BLK (human) (UniProt P51451)
DCLK2 (human) = DCLK2 (human) (UniProt Q8N568)
TEC (human) = TEC (human) (UniProt P42680)
MAPK9 (human) = MAPK9 (human) (UniProt P45984)
PRKCQ (human) = PRKCQ (human) (UniProt Q04759)
EPHB3 (human) = EPHB3 (human) (UniProt P54753)
RIPK1 (human) = RIPK1 (human) (UniProt Q13546)
FLT1 (human) = FLT1 (human) (UniProt P17948)
NEK9 (human) = NEK9 (human) (UniProt Q8TD19)
ITK (human) = ITK (human) (UniProt Q08881)
EPHB1 (human) = EPHB1 (human) (UniProt P54762)
CDC42BPB (human) = CDC42BPB (human) (UniProt Q9Y5S2)
ULK1 (human) = ULK1 (human) (UniProt O75385)
ULK3 (human) = ULK3 (human) (UniProt Q6PHR2)
Chain of ULK3 (human) (Q6PHR2 whole entry, looked up): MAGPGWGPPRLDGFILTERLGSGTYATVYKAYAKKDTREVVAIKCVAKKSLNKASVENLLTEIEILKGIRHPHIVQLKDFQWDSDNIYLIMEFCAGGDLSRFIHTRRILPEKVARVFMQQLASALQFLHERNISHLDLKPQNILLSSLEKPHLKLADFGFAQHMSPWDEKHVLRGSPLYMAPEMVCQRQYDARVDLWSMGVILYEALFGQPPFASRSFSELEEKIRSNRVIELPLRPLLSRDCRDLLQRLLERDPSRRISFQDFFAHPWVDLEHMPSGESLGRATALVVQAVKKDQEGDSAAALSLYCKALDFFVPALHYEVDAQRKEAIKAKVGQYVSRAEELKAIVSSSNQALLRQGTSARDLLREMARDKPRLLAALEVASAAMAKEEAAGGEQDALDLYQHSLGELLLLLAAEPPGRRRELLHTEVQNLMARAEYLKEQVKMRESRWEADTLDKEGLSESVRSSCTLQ

RPS6KA2 KD1 (human) = RPS6KA2 KD1 (human) (UniProt Q15349)
Chain of RPS6KA2 KD1 (human) (Q15349 whole entry, looked up): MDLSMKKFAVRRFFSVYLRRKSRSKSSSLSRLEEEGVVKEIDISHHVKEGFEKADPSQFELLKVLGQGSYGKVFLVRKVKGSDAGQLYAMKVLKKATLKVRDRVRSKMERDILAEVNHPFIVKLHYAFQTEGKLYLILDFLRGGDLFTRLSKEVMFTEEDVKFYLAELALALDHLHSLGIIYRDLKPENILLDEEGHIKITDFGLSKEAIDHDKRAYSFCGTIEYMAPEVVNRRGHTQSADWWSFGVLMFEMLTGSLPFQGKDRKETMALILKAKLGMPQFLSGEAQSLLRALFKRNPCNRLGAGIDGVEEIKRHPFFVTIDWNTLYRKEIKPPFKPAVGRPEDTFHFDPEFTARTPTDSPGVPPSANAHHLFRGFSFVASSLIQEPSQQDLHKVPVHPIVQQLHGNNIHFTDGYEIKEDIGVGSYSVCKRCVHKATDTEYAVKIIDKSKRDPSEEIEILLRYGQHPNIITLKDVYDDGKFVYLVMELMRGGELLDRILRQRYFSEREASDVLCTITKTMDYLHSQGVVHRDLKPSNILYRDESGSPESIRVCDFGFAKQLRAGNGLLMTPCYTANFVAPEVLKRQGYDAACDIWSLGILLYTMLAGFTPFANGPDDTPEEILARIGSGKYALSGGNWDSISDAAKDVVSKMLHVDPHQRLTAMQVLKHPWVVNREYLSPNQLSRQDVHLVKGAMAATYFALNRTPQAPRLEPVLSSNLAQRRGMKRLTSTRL

EPHA2 (human) = EPHA2 (human) (UniProt P29317)
CAMK1D (human) = CAMK1D (human) (UniProt Q8IU85)
CSNK1G2 (human) = CSNK1G2 (human) (UniProt P78368)

Chain of PRKAA1 (human) (Q13131 whole entry, looked up): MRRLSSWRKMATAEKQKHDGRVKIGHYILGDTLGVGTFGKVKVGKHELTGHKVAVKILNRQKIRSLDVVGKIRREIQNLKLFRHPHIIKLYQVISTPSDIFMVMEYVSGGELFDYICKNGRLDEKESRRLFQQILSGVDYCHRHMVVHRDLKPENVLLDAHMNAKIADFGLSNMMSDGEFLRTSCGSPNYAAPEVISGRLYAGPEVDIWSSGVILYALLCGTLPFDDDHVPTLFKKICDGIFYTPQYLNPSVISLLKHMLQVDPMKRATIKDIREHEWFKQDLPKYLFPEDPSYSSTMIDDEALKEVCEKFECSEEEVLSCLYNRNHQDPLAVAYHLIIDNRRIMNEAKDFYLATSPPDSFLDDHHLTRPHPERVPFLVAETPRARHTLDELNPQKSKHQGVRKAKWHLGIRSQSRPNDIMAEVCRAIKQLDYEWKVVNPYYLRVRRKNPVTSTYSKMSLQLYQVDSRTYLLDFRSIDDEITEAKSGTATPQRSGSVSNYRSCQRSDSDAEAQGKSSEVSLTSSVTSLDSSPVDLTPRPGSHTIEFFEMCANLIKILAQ
Chain of SRMS (human) (Q9H3Y6 whole entry, looked up): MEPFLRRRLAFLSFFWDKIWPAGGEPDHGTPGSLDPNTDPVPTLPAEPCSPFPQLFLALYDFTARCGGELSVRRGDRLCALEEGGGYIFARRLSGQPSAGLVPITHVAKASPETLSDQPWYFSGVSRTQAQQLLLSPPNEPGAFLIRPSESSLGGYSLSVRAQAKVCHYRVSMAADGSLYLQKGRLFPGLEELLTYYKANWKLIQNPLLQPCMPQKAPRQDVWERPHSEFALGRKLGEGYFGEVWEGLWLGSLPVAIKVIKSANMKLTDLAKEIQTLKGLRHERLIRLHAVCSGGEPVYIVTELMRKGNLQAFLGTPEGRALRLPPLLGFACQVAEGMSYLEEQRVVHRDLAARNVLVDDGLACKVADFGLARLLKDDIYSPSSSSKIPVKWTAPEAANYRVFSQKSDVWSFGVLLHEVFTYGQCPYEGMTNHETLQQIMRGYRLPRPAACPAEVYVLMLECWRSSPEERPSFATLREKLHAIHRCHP

CCOc1cc2ncc(C#N)c(Nc3ccc(OCc4ccccn4)c(Cl)c3)c2cc1NC(=O)/C=C/CN(C)C
kinase still bound, per cent of control (PHKG1 (human)): 92% | kinase still bound, per cent of control (ZAP70 (human)): 87% | kinase still bound, per cent of control (PRKAA1 (human)): 79% | kinase still bound, per cent of control (CSNK2A1 (human)): 94% | kinase still bound, per cent of control (BMPR1B (human)): 81% | kinase still bound, per cent of control (SRMS (human)): 91% | kinase still bound, per cent of control (MAPK3 (human)): 100% | kinase still bound, per cent of control (BRSK1 (human)): 95% | kinase still bound, per cent of control (SRC (human)): 82% | kinase still bound, per cent of control (RIOK1 (human)): 68% | kinase still bound, per cent of control (WEE1 (human)): 57% | kinase still bound, per cent of control (RIOK2 (human)): 53% | kinase still bound, per cent of control (NEK7 (human)): 100% | kinase still bound, per cent of control (SLK (human)): 1.4% | kinase still bound, per cent of control (MAPK6 (human)): 100% | kinase still bound, per cent of control (BRSK2 (human)): 100% | kinase still bound, per cent of control (CDK15 (human)): 98% | kinase still bound, per cent of control (STK25 (human)): 13% | kinase still bound, per cent of control (MELK (human)): 55% | kinase still bound, per cent of control (CLK1 (human)): 84% | kinase still bound, per cent of control (STK33 (human)): 42% | kinase still bound, per cent of control (EPHA7 (human)): 97% | kinase still bound, per cent of control (BLK (human)): 3% | kinase still bound, per cent of control (DCLK2 (human)): 100% | kinase still bound, per cent of control (TEC (human)): 73% | kinase still bound, per cent of control (MAPK9 (human)): 52% | kinase still bound, per cent of control (PRKCQ (human)): 100% | kinase still bound, per cent of control (EPHB3 (human)): 100% | kinase still bound, per cent of control (RIPK1 (human)): 100% | kinase still bound, per cent of control (FLT1 (human)): 95% | kinase still bound, per cent of control (NEK9 (human)): 100% | kinase still bound, per cent of control (ITK (human)): 52% | kinase still bound, per cent of control (EPHB1 (human)): 98% | kinase still bound, per cent of control (CDC42BPB (human)): 100% | kinase still bound, per cent of control (ULK1 (human)): 100% | kinase still bound, per cent of control (ULK3 (human)): 100% | kinase still bound, per cent of control (RPS6KA2 KD1 (human)): 88% | kinase still bound, per cent of control (EPHA2 (human)): 94%

COc1cc(N2CCN(C)CC2)ccc1Nc1nc(N)c(C(=O)c2c(Cl)cccc2Cl)s1
kinase still bound, per cent of control (PHKG1 (human)): 82% | kinase still bound, per cent of control (PRKAA1 (human)): 81% | kinase still bound, per cent of control (CSNK2A1 (human)): 91% | kinase still bound, per cent of control (BMPR1B (human)): 90% | kinase still bound, per cent of control (CAMK1D (human)): 24% | kinase still bound, per cent of control (SRMS (human)): 71% | kinase still bound, per cent of control (MAPK3 (human)): 100% | kinase still bound, per cent of control (BRSK1 (human)): 91% | kinase still bound, per cent of control (SRC (human)): 100% | kinase still bound, per cent of control (RIOK1 (human)): 100% | kinase still bound, per cent of control (WEE1 (human)): 100% | kinase still bound, per cent of control (RIOK2 (human)): 100% | kinase still bound, per cent of control (NEK7 (human)): 100% | kinase still bound, per cent of control (SLK (human)): 1.6% | kinase still bound, per cent of control (MAPK6 (human)): 100% | kinase still bound, per cent of control (BRSK2 (human)): 87% | kinase still bound, per cent of control (CSNK1G2 (human)): 100% | kinase still bound, per cent of control (CDK15 (human)): 26% | kinase still bound, per cent of control (STK25 (human)): 66% | kinase still bound, per cent of control (MELK (human)): 100% | kinase still bound, per cent of control (CLK1 (human)): 22% | kinase still bound, per cent of control (STK33 (human)): 83% | kinase still bound, per cent of control (EPHA7 (human)): 88% | kinase still bound, per cent of control (DCLK2 (human)): 4.1% | kinase still bound, per cent of control (TEC (human)): 69% | kinase still bound, per cent of control (MAPK9 (human)): 100% | kinase still bound, per cent of control (PRKCQ (human)): 54% | kinase still bound, per cent of control (EPHB3 (human)): 0% | kinase still bound, per cent of control (RIPK1 (human)): 100% | kinase still bound, per cent of control (FLT1 (human)): 100% | kinase still bound, per cent of control (NEK9 (human)): 100% | kinase still bound, per cent of control (ITK (human)): 91% | kinase still bound, per cent of control (EPHB1 (human)): 87% | kinase still bound, per cent of control (CDC42BPB (human)): 100% | kinase still bound, per cent of control (ULK1 (human)): 93% | kinase still bound, per cent of control (ULK3 (human)): 100% | kinase still bound, per cent of control (RPS6KA2 KD1 (human)): 84%

O=C(O)c1ccc(Nc2ncc3c(n2)-c2ccc(Cl)cc2C(c2c(F)cccc2F)=NC3)cc1
kinase still bound, per cent of control (PHKG1 (human)): 100% | kinase still bound, per cent of control (ZAP70 (human)): 100% | kinase still bound, per cent of control (PRKAA1 (human)): 38% | kinase still bound, per cent of control (CSNK2A1 (human)): 29% | kinase still bound, per cent of control (BMPR1B (human)): 86% | kinase still bound, per cent of control (CAMK1D (human)): 98% | kinase still bound, per cent of control (SRMS (human)): 54% | kinase still bound, per cent of control (BRSK1 (human)): 100% | kinase still bound, per cent of control (RIOK1 (human)): 100% | kinase still bound, per cent of control (WEE1 (human)): 100% | kinase still bound, per cent of control (RIOK2 (human)): 99% | kinase still bound, per cent of control (NEK7 (human)): 100% | kinase still bound, per cent of control (SLK (human)): 80% | kinase still bound, per cent of control (MAPK6 (human)): 92% | kinase still bound, per cent of control (BRSK2 (human)): 100% | kinase still bound, per cent of control (CSNK1G2 (human)): 66% | kinase still bound, per cent of control (CDK15 (human)): 100% | kinase still bound, per cent of control (STK25 (human)): 56% | kinase still bound, per cent of control (MELK (human)): 81% | kinase still bound, per cent of control (CLK1 (human)): 63% | kinase still bound, per cent of control (STK33 (human)): 100% | kinase still bound, per cent of control (EPHA7 (human)): 8.8% | kinase still bound, per cent of control (BLK (human)): 0.7% | kinase still bound, per cent of control (DCLK2 (human)): 94% | kinase still bound, per cent of control (TEC (human)): 2% | kinase still bound, per cent of control (MAPK9 (human)): 57% | kinase still bound, per cent of control (PRKCQ (human)): 98% | kinase still bound, per cent of control (EPHB3 (human)): 29% | kinase still bound, per cent of control (RIPK1 (human)): 100% | kinase still bound, per cent of control (FLT1 (human)): 12% | kinase still bound, per cent of control (NEK9 (human)): 100% | kinase still bound, per cent of control (EPHB1 (human)): 2.2% | kinase still bound, per cent of control (CDC42BPB (human)): 69% | kinase still bound, per cent of control (ULK1 (human)): 40% | kinase still bound, per cent of control (ULK3 (human)): 57% | kinase still bound, per cent of control (RPS6KA2 KD1 (human)): 100%

CC[C@@H]1C(=O)N(C)c2cnc(Nc3ccc(C(=O)NC4CCN(C)CC4)cc3OC)nc2N1C1CCCC1
kinase still bound, per cent of control (PHKG1 (human)): 100% | kinase still bound, per cent of control (ZAP70 (human)): 100% | kinase still bound, per cent of control (PRKAA1 (human)): 100% | kinase still bound, per cent of control (CSNK2A1 (human)): 100% | kinase still bound, per cent of control (BMPR1B (human)): 100% | kinase still bound, per cent of control (SRMS (human)): 100% | kinase still bound, per cent of control (MAPK3 (human)): 100% | kinase still bound, per cent of control (BRSK1 (human)): 100% | kinase still bound, per cent of control (SRC (human)): 100% | kinase still bound, per cent of control (RIOK1 (human)): 100% | kinase still bound, per cent of control (WEE1 (human)): 100% | kinase still bound, per cent of control (RIOK2 (human)): 100% | kinase still bound, per cent of control (NEK7 (human)): 100% | kinase still bound, per cent of control (SLK (human)): 3% | kinase still bound, per cent of control (MAPK6 (human)): 100% | kinase still bound, per cent of control (BRSK2 (human)): 100% | kinase still bound, per cent of control (CDK15 (human)): 100% | kinase still bound, per cent of control (STK25 (human)): 100% | kinase still bound, per cent of control (MELK (human)): 29% | kinase still bound, per cent of control (CLK1 (human)): 100% | kinase still bound, per cent of control (STK33 (human)): 14% | kinase still bound, per cent of control (EPHA7 (human)): 100% | kinase still bound, per cent of control (DCLK2 (human)): 13% | kinase still bound, per cent of control (TEC (human)): 100% | kinase still bound, per cent of control (MAPK9 (human)): 100% | kinase still bound, per cent of control (PRKCQ (human)): 100% | kinase still bound, per cent of control (EPHB3 (human)): 100% | kinase still bound, per cent of control (RIPK1 (human)): 100% | kinase still bound, per cent of control (FLT1 (human)): 100% | kinase still bound, per cent of control (NEK9 (human)): 100% | kinase still bound, per cent of control (ITK (human)): 100% | kinase still bound, per cent of control (EPHB1 (human)): 100% | kinase still bound, per cent of control (CDC42BPB (human)): 100% | kinase still bound, per cent of control (ULK1 (human)): 100% | kinase still bound, per cent of control (ULK3 (human)): 100% | kinase still bound, per cent of control (RPS6KA2 KD1 (human)): 100% | kinase still bound, per cent of control (EPHA2 (human)): 100%
